Compound in one assay: CN(C)C(=O)c1cc2cnc(Nc3ccc(N4CCNCC4)cn3)nc2n1C1CCCC1 [LEE011/Ribociclib]
Briefly: GR value, 72 h; higher = faster growth (1 = untreated, <0 = killing).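 Also: breast cancer and non-malignant breast epithelial lines, nine half-log doses, viable cells counted by Hoechst and LIVE/DEAD dye imaging versus time-zero plates and DMSO controls.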 The settings on record: 1 µM.
HCC70: the GR value was found to be 1.06 GR.
Consider HCC1143, for which the GR value amounted to 0.72 GR.
Take HCC1395: the GR value was 0.569 GR.

Still in this assay, the particulars now being: 3.162 µM.
With EFM19, the GR value amounted to 0.415 GR.
In the case of EVSAT, the GR value was determined as 0.813 GR.
On to HCC38, for which the GR value amounted to 0.4 GR.
As to HCC70, the GR value was 1.03 GR.
Take HCC1143: the GR value amounted to 0.551 GR.
Still for that read-out and setting: the value for HCC1395 was 0.553 GR.

Still in this assay, the particulars now being: 10 µM.
On to EFM19, for which the GR value worked out at 0.355 GR.
For the cell line EVSAT, the GR value amounted to 0.616 GR.
In the case of HCC38, the GR value came out at 0.239 GR.
Turning to HCC70, the GR value was 1.05 GR.
As to HCC1143, the GR value turned out to be 0.311 GR.
Take HCC1395: the GR value came to 0.415 GR.

Compound in another assay: CN(C)C/C=C/C(=O)Nc1ccc(C(=O)N2CCC[C@@H](Nc3ncc(Cl)c(-c4c[nH]c5ccccc45)n3)C2)cc1 [THZ531]
Described as above. The settings on record: 0.0001 µM.
In the case of EFM19, the GR value came out at 0.996 GR.
Regarding EVSAT, the GR value turned out to be 0.995 GR.
Regarding HCC38, the GR value was found to be 0.922 GR.
For HCC70, the GR value was 1.09 GR.
As to HCC1143, the GR value is 0.974 GR.
For the cell line HCC1395, the GR value is 1.14 GR.

Still in this assay, the particulars now being: 0.0003162 µM.
With EFM19, the GR value is 0.978 GR.
Regarding EVSAT, the GR value was found to be 0.952 GR.
The same measure, in the same setting: the value for HCC38 was 1.03 GR; that for HCC70 was 0.962 GR; that for HCC1143 was 0.976 GR.
On the same count and under the same terms, the value for HCC1395 was 0.962 GR.

The same assay, now with this note: 0.001 µM.
Take EFM19: the GR value stood at 0.907 GR.
Still for that read-out and setting: the value for EVSAT was 1 GR; that for HCC38 was 1.04 GR.
As for HCC70, the GR value came to 1.15 GR.
With HCC1143, the GR value was determined as 1.03 GR.
Regarding HCC1395, the GR value was 0.995 GR.

Still in this assay, the particulars now being: 0.003162 µM.
For the cell line EFM19, the GR value was 0.911 GR.
As to EVSAT, the GR value was 1.01 GR.
On to HCC38, for which the GR value came to 0.998 GR.
Regarding HCC70, the GR value was 1.02 GR.
Same read-out and setting: then HCC1143, with 0.957 GR; and HCC1395, with 0.947 GR.

Still in this assay, the particulars now being: 0.01 µM.
For the cell line EFM19, the GR value was 1.07 GR.
Consider EVSAT, for which the GR value turned out to be 1.07 GR.
Turning to HCC38, the GR value came to 1.07 GR.
As for HCC70, the GR value was 1.16 GR.
Turning to HCC1143, the GR value is 1.02 GR.
Still for that read-out and setting: then HCC1395, with 0.976 GR.

The assay is the same for the next values; noted with them: 0.03162 µM.
Take EFM19: the GR value turned out to be 0.896 GR.
The same measure, in the same setting: the value for EVSAT was 1.06 GR; that for HCC38 was 1.02 GR; that for HCC70 was 0.962 GR.
As for HCC1143, the GR value was 0.937 GR.
Turning to HCC1395, the GR value was determined as 0.76 GR.

Staying with this assay, now noted: 0.1 µM.
With EFM19, the GR value is 1 GR.
Still for that read-out and setting: then EVSAT, with 0.745 GR.
The same measure, in the same setting: then HCC38, with 0.765 GR; and HCC70, with -0.197 GR.
As for HCC1143, the GR value is 0.689 GR.
With HCC1395, the GR value is 0.408 GR.

Still in this assay, the particulars now being: 0.3162 µM.
Regarding EFM19, the GR value was 0.801 GR.
Turning to EVSAT, the GR value was determined as 0.0467 GR.
In the case of HCC38, the GR value came out at 0.0587 GR.
In the case of HCC70, the GR value is -0.793 GR.
As to HCC1143, the GR value is -0.125 GR.
The same measure, in the same setting: the value for HCC1395 was -0.251 GR.

The assay is the same for the next values; noted with them: 1 µM.
As to EFM19, the GR value was -0.59 GR.
Turning to HCC38, the GR value was -0.335 GR.
Regarding HCC70, the GR value was -0.941 GR.
For HCC1143, the GR value was -0.228 GR.
Regarding HCC1395, the GR value is -0.587 GR.

Compound in another assay: CN1CC[C@H](c2c(O)cc(O)c3c(=O)cc(-c4ccccc4Cl)oc23)[C@H](O)C1 [Flavopiridol]
Described as above. The settings on record: 0.0001 µM.
EFM19: the GR value was determined as 1.03 GR.
On the same count and under the same terms, then EVSAT, with 1.01 GR.
In the case of HCC38, the GR value was 0.986 GR.
Consider HCC70, for which the GR value was 1.05 GR.
With HCC1143, the GR value was 1 GR.
HCC1395: the GR value is 1.02 GR.

The assay is the same for the next values; noted with them: 0.0003162 µM.
As for EFM19, the GR value amounted to 0.976 GR.
Still for that read-out and setting: the value for EVSAT was 1.06 GR.
On to HCC38, for which the GR value was found to be 0.927 GR.
As for HCC70, the GR value is 1.01 GR.
Turning to HCC1143, the GR value came out at 1.04 GR.
For HCC1395, the GR value was determined as 0.885 GR.

The same assay, now with this note: 0.001 µM.
In the case of EFM19, the GR value is 0.978 GR.
In the case of EVSAT, the GR value was determined as 1.02 GR.
As to HCC38, the GR value was 0.962 GR.
As for HCC70, the GR value came out at 1.1 GR.
Turning to HCC1143, the GR value was determined as 0.952 GR.
HCC1395: the GR value came to 0.933 GR.

The assay is the same for the next values; noted with them: 0.003162 µM.
EFM19: the GR value stood at 0.991 GR.
On to EVSAT, for which the GR value is 0.984 GR.
With HCC38, the GR value stood at 0.855 GR.
Turning to HCC70, the GR value came out at 1.16 GR.
For HCC1143, the GR value was 0.964 GR.
Consider HCC1395, for which the GR value is 0.826 GR.

The same assay, now with this note: 0.01 µM.
Turning to EFM19, the GR value was found to be 0.877 GR.
For the cell line EVSAT, the GR value was 0.925 GR.
The same measure, in the same setting: then HCC38, with 0.897 GR; and HCC70, with 0.998 GR.
In the case of HCC1143, the GR value came to 0.988 GR.
Regarding HCC1395, the GR value came to 0.75 GR.

Staying with this assay, now noted: 0.03162 µM.
EFM19: the GR value worked out at 0.976 GR.
Consider EVSAT, for which the GR value turned out to be 0.97 GR.
For HCC38, the GR value is 0.814 GR.
As to HCC70, the GR value worked out at 0.791 GR.
Consider HCC1143, for which the GR value was 0.933 GR.
HCC1395: the GR value turned out to be 0.973 GR.

Still in this assay, the particulars now being: 0.1 µM.
With EFM19, the GR value amounted to 0.809 GR.
Take EVSAT: the GR value was 0.917 GR.
For the cell line HCC38, the GR value was 0.591 GR.
Regarding HCC70, the GR value turned out to be 0.371 GR.
Turning to HCC1143, the GR value worked out at 0.722 GR.
For HCC1395, the GR value came to 0.683 GR.

The same assay, now with this note: 0.3162 µM.
Take EFM19: the GR value was 0.466 GR.
The same measure, in the same setting: then EVSAT, with 0.619 GR; and HCC38, with 0.182 GR.
HCC70: the GR value is -0.694 GR.
HCC1143: the GR value stood at 0.175 GR.
For the cell line HCC1395, the GR value was -0.0127 GR.

Staying with this assay, now noted: 1 µM.
As for EFM19, the GR value was -0.199 GR.
Regarding EVSAT, the GR value was -0.514 GR.
Take HCC38: the GR value is -0.439 GR.
With HCC70, the GR value is -0.815 GR.
As for HCC1143, the GR value is -0.31 GR.
In the case of HCC1395, the GR value was -0.672 GR.
